Results from publication PMC7700809 (Molecular Biomedicine, 2020).

Columns and labels:
SARS-CoV-2 = test: microbe, parasite or virus in culture; assay type: cell-based; settings: Severe acute respiratory syndrome coronavirus 2, Vero; read-out: EC50 antiviral replication effect
[1] = test system: SARS-CoV-2 specific nucleocapsid; test: Western blot analysis of nucleocapsid level in Vero cells; assay type: cell-based
IL-6 = test: LPS induced IL-6 protein level in M1 polarized THP-1 macrophages (ELISA); assay type: cell-based, Human; settings: 0.01 μM, 36 h
Procedure: Results are expressed as means ±S.D. (n = 3).
Human monocytic THP-1 cells were maintained in RPMI 1640 medium (Corning, USA) supplemented with 2% L-glutamine,10% fetal bovine serum (FBS), 1% penicillin/ streptomycin and […] ß-mercaptoethanol. THP-1 monocytes are differentiated into macrophages by 24 h incubation with 150 nM phorbol 12-myristate 13-acetate (PMA, Sigma, P8139) followed by 24 h incubation in RPMI medium. Macrophages were polarized in M1 macrophages by incubation with 20 ng/ml of IFN-γ (R&D system, #285-IF) and 100 ng/ml of LPS (Sigma, #8630). […] Cytokine secretion in the culture medium was assayed using an ELISA kit according to the procedure recommended by the supplier (IL-6 (MultiSciences, 70-EK106/2–96), TNFα (MultiSciences,70-EK182HS-96)).

[2] = In vivo plasma pharmacokinetics in mice; settings: for MRT last: read-out: MRT0-t; for MRT inf: read-out: MRT0-∞
Procedure: (§1) After dosage, blood samples were collected into heparinized tubes at 2, 5, 15, 30, 60, 120, 240, 360, 540, and 720 min for the i.v. group, and at 5, 15, 30, 60, 90, 120, 240, 360, 540, 720 and 1440 min for the i.g. group. Plasma (100 μL) was isolated from the blood sample by centrifuging at 4 °C and 6000 rpm for 3 min and then stored at − 80 °C until analysis. An aliquot of 100 μL of each plasma sample was mixed with 20 μL of internal standard working solution (200 ng/mL of caffeine). Methanol (400 μL) was then added for precipitation. After vortexing for 5 min and centrifuging at 14000 rpm for 10 min, 5 μL of the supernatant was injected for LC-MS/MS analysis.
(§2) The PK parameters were analyzed through the noncompartment model using WinNonlin 6.1 software (Pharsight Corporation, Mountain View, USA), including half-life (T1/2), the peak of the plasma concentration (Cmax), the time to peak of the plasma concentration (Tmax), the area under the plasma concentration-time curve during the period of observation (AUC0-t), the area under the plasma concentration-time curve from zero to infinity (AUC0-∞), clearance (CL), apparent volume of distribution (Vd), and the mean residence time.

[3] = In vivo plasma pharmacokinetics in rats; design: species or system Sprague-Dawley rats; settings: Rat; for MRT last: read-out: MRT0-t; for MRT inf: read-out: MRT0-∞
Procedure: as §1, §2

in vivo = settings: male, mouse, lung, po
in vitro = settings: African green monkey
[4] = Lung distribution in rats after oral administration
[5] = Lung distribution in mice after oral administration
[6] = Sprague-Dawley, iv, I.V. 1 mg/kg
[7] = Sprague-Dawley, po, P.O. 10 mg/kg
[8] = 1 mg/kg (P.O.) single dose, 1 h
[9] = 1 mg/kg (P.O.) single dose, 2 h
[10] = 1 mg/kg (P.O.) single dose, 4 h
[11] = 1 mg/kg (P.O.) single dose, 6 h
[12] = 1 mg/kg (P.O.) single dose, 9 h
[13] = 1 mg/kg (P.O.) single dose, 24 h
[14] = 1 mg/kg (P.O.) single dose, 48 h
[15] = 1 mg/kg (P.O.) single dose, 72 h
[16] = 1 mg/kg (Q.D.× 3 days, P.O.), 1 h
[17] = 1 mg/kg (Q.D.× 3 days, P.O.), 2 h
[18] = 1 mg/kg (Q.D.× 3 days, P.O.), 4 h
[19] = 1 mg/kg (Q.D.× 3 days, P.O.), 6 h
[20] = 1 mg/kg (Q.D.× 3 days, P.O.), 9 h
[21] = 1 mg/kg (Q.D.× 3 days, P.O.), 12 h
[22] = 1 mg/kg (Q.D.× 3 days, P.O.), 24 h
[23] = 1 mg/kg (Q.D.× 3 days, P.O.), 72 h

What does the source list for `CC[C@H]1CN2CCc3cc(OC)c(OC)cc3[C@@H]2C[C@@H]1C[C@H]1NCCc2cc(OC)c(OC)cc21` [Emetine]?
EC50 (SARS-CoV-2): 7 nM; SARS-CoV-2 specific nucleocapsid level, anti-replication effect ([1]; Vero cells infected […], then drug 24 h): dose-dependently decreased; SARS-CoV-2 specific nucleocapsid level, anti-entry effect ([1]; Vero cells pretreated with drug […], virus […], 24 h): confirmed this trend; LPS induced IL-6 expression level (IL-6): significantly reduce; AUMC0-t ([2]; I.V. 1 mg/kg): 616 ± 181 hr*hr.*ng/mL; AUMC0-∞ ([2]; I.V. 1 mg/kg): 3472 ± 1149 hr*hr.*ng/mL; AUMC0-t ([2]; P.O. 10 mg/kg): 8355 ± 2710 hr*hr.*ng/mL; AUMC0-∞ ([2]; P.O. 10 mg/kg): 36,666 ± 31,176 hr*hr.*ng/mL; Cl ([2]; P.O. 10 mg/kg): 143.5 ± 64.88 mL/min/kg; Vz ([2]; P.O. 10 mg/kg): 174,470 ± 45,790 mL/kg; AUC(0-inf) ([2]; male, mouse, iv, I.V. 1 mg/kg): 258 ± 71 ng·h/mL; AUC(0-t) ([2]; male, mouse, iv, I.V. 1 mg/kg): 120 ± 26 ng·h/mL; C0 ([2]; male, mouse, iv, I.V. 1 mg/kg): 172 ± 86 ng/mL; Cmax ([2]; male, mouse, iv, I.V. 1 mg/kg): 111 ± 13.5 ng/mL; Tmax ([2]; male, mouse, iv, I.V. 1 mg/kg): 0.03 h; clearance ([2]; male, mouse, iv, I.V. 1 mg/kg): 68.6 mL/min/kg; half-life ([2]; male, mouse, iv, I.V. 1 mg/kg): 6.24 ± 1.17 h; MRT last ([2]; male, mouse, iv, I.V. 1 mg/kg): 5.06 ± 0.57 h; MRT inf ([2]; male, mouse, iv, I.V. 1 mg/kg): 13.4 ± 1.37 h; Vd ([2]; male, mouse, iv, I.V. 1 mg/kg, read-out: Vz): 38.4 L/kg; AUC(0-inf) ([2]; male, mouse, po, P.O. 10 mg/kg): 1340 ± 625 ng·h/mL; AUC(0-t) ([2]; male, mouse, po, P.O. 10 mg/kg): 811 ± 208 ng·h/mL; Cmax ([2]; male, mouse, po, P.O. 10 mg/kg): 61.6 ± 15.1 ng/mL; Tmax ([2]; male, mouse, po, P.O. 10 mg/kg): 1.67 ± 0.58 h; half-life ([2]; male, mouse, po, P.O. 10 mg/kg): 15.9 ± 8.22 h; bioavailability ([2]; male, mouse, po, P.O. 10 mg/kg vs I.V. 1 mg/kg, read-out: F (oral bioavailability)): 52.1 ± 24.2%; MRT last ([2]; male, mouse, po, P.O. 10 mg/kg): 10.2 ± 1.31 h; MRT inf ([2]; male, mouse, po, P.O. 10 mg/kg): 24.3 ± 10 h; AUMC0-t ([3]; I.V. 1 mg/kg): 131 ± 18 hr*hr.*ng/mL; AUMC0-∞ ([3]; I.V. 1 mg/kg): 320 ± 141 hr*hr.*ng/mL; AUMC0-t ([3]; P.O. 10 mg/kg): 1989 ± 15 hr*hr.*ng/mL; AUMC0-∞ ([3]; P.O. 10 mg/kg): 3676 ± 1871 hr*hr.*ng/mL; Cl ([3]; P.O. 10 mg/kg): 45,918 ± 5515 mL/hr./kg; AUC(0-inf) [3, 6]: 39.8 ± 11.3 ng·h/mL; AUC(0-t) [3, 6]: 29.8 ± 6.1 ng·h/mL; C0 [3, 6]: 33.5 ± 2.4 ng/mL; Cmax [3, 6]: 26.9 ± 4.8 ng/mL; Tmax [3, 6]: 0.03 h; clearance [3, 6]: 445 mL/min/kg; half-life [3, 6]: 4.46 ± 1.18 h; MRT last [3, 6]: 4.41 ± 0.31 h; MRT inf [3, 6]: 7.76 ± 1.81 h; Vd ([3]; Sprague-Dawley, iv, I.V. 1 mg/kg, read-out: Vz): 163 L/kg; AUC(0-inf) [3, 7]: 220 ± 28 ng·h/mL; AUC(0-t) [3, 7]: 172 ± 18 ng·h/mL; Cmax [3, 7]: 12.2 ± 3.3 ng/mL; Tmax [3, 7]: 9 h; half-life [3, 7]: 5.16 ± 4.16 h; bioavailability ([3]; Sprague-Dawley, po, P.O. 10 mg/kg vs I.V. 1 mg/kg, read-out: F (oral bioavailability)): 55.3 ± 7.1%; MRT last [3, 7]: 11.6 ± 1.33 h; MRT inf [3, 7]: 16.2 ± 6 h; concentration at 12 h (in vivo; 1 mg/kg): 1800 nM; concentration at 72 h (in vivo; 1 mg/kg): 230 nM; concentration at 1 h (in vivo; 1 mg/kg/day): 5000 to 6000 nM; concentration at 72 h (in vivo; 1 mg/kg/day): 2170 nM; CC50 (in vitro): 1960 nM; Rat lung con. [4, 8]: 0.15 ± 0.03 ng/mL; Rat lung con. [4, 9]: 0.26 ± 0.06 ng/mL; Rat lung con. [4, 10]: 0.93 ± 0.32 ng/mL; Rat lung con. [4, 11]: 1.01 ± 0.10 ng/mL; Rat lung con. [4, 12]: 1.47 ± 0.09 ng/mL; Rat lung con. ([4]; 1 mg/kg (P.O.) single dose, 12 h): 1.61 ± 0.48 ng/mL; Rat lung con. [4, 13]: 1.32 ± 0.63 ng/mL; Rat lung con. [4, 14]: 0.76 ± 0.11 ng/mL; Rat lung con. [4, 15]: 0.36 ± 0.08 ng/mL; Rat lung con. [4, 16]: 5.78 ± 0.61 ng/mL; Rat lung con. [4, 17]: 6.51 ± 0.67 ng/mL; Rat lung con. [4, 18]: 6.65 ± 1.21 ng/mL; Rat lung con. [4, 19]: 6.96 ± 0.87 ng/mL; Rat lung con. [4, 20]: 8.34 ± 1.09 ng/mL; Rat lung con. [4, 21]: 8.16 ± 1.58 ng/mL; Rat lung con. [4, 22]: 7.25 ± 0.79 ng/mL; Rat lung con. ([4]; 1 mg/kg (Q.D.× 3 days, P.O.), 48 h): 5.97 ± 0.81 ng/mL; Rat lung con. [4, 23]: 4.89 ± 1.35 ng/mL; Lung concentration ([4]; rats, 1 mg/kg single oral dose, 12 h, 1 mg/kg): 1.6 µM; time of maximum lung concentration (Cmax) ([4]; rats, 1 mg/kg/day oral 3 days): 9 h; Mice lung con. [5, 8]: 0.23 ± 0.04 ng/mL; Mice lung con. [5, 9]: 0.50 ± 0.35 ng/mL; Mice lung con. [5, 10]: 0.81 ± 0.16 ng/mL; Mice lung con. [5, 11]: 1.06 ± 0.09 ng/mL; Mice lung con. [5, 12]: 1.75 ± 0.28 ng/mL; Mice lung con. [5, 13]: 1.13 ± 0.18 ng/mL; Mice lung con. [5, 14]: 0.61 ± 0.09 ng/mL; Mice lung con. [5, 15]: 0.23 ± 0.06 ng/mL; Mice lung con. [5, 16]: 6.17 ± 1.54 ng/mL; Mice lung con. [5, 17]: 6.44 ± 0.96 ng/mL; Mice lung con. [5, 18]: 6.73 ± 0.40 ng/mL; Mice lung con. [5, 19]: 7.14 ± 2.10 ng/mL; Mice lung con. [5, 20]: 7.46 ± 0.89 ng/mL; Mice lung con. [5, 21]: 7.26 ± 0.93 ng/mL; Mice lung con. [5, 22]: 4.61 ± 0.84 ng/mL; Mice lung con. [5, 23]: 2.17 ± 0.42 ng/mL; retention time in lung tissue ([5]; in vivo animal PK study, species not named at the place): over 12 h; time of maximum lung concentration ([5]; mice, 1 mg/kg single oral dose): 12 h; time of maximum lung concentration (Cmax) ([5]; mice, 1 mg/kg/day oral 3 days): 9 h
